We go through 23 compounds from patent US20130109734A1 (Metabolex, Inc., priority 2010, published 2013).

This assay concerns the target T1, human GPR120 (Homo sapiens, UniProt Q5NUL3).
T1 construct: host or cells: HEK293 cells co-expressing Gqi5
T1 sequence (Q5NUL3 1-361): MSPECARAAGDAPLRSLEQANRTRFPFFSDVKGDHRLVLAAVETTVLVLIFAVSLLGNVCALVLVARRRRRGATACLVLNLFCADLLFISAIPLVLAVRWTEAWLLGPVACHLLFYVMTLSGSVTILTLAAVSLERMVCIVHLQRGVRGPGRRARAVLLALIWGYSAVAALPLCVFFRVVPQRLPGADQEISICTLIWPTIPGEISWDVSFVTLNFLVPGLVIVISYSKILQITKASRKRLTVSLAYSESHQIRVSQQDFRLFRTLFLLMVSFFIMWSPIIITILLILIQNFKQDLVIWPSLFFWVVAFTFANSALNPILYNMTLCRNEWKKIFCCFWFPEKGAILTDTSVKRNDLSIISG
As to the kind of experiment: Intracellular Ca2+ assay in human GPR120 stable cell line (HEK293 co-expressing Gqi5), Flexstation. The class given is cell-based. Particulars: for % Activity (GW9508 Reference Compound): % activity at 5 μM compared to the maximal activity of GW9508 at 6.7 μM (=100%), human GPR120 cells, Ca2+ fluorescence; for EC50: human GPR120 stably expressing cells, Ca2+ fluorescence (Max-Min), eight concentrations 0.00001 to 20 μM. As to the method:
Human GPR120 stable cell line was purchased from Multispan Inc (26219 Eden Landing Road, Hayward, Calif. 94545). This GPR120 cell line was generated in HEK293 cells co-expressing Gqi5. In this cell line, the Flag epitope tag (DYKDDDDK) was fused to the amino terminus of human GPR120 protein.
The concentration of intracellular Ca^2+ was measured as described below. Human GPR120 cells were plated in 96 well plates (Poly-D-Lysine coated black/clear Plate, Greiner Bio-One) at 70,000 cells per well and cultured overnight in conditions of 37° C. and 5% CO2. A Ca^2+assay dye stock solution was prepared by adding 10 mL of assay buffer (HBSS/20 mM HEPES, pH 7.4) to FLIPR Calcium 4 Assay Bulk Kit (Molecular Devices). The 10 mL of Ca^2+ assay dye solution was prepared by further diluting 0.5 mL of Ca^2+ assay dye stock solution with 10 mL of assay buffer. The medium of the cells was removed and immediately 100 μL of the Ca^2+ assay dye solution was dispensed into each well followed by incubation at 37° C. and 5% CO2 for 50 minutes to incorporate the Ca^2+ dye into the cells. The cell plate was then placed in the Flexstation (Molecular Devices) for 20 minutes at 37° C. Compounds were dissolved in 100% DMSO and diluted to desired concentrations with assay buffer and placed in the Flexstation simultaneously with the cell plate for 20 minute incubation at 37° C. prior to reading. Fluorescence intensity was measured immediately following compound addition (25 μL/well) on the Flexstation at an excitation wavelength of 485 nm and an emission wavelength of 525 with 515 nm auto cutoff. The resulting increase in fluorescence intensities corresponds to increases in intracellular Ca^2+ levels.
Compounds were dissolved in 100% DMSO to a concentration of 20 mM to provide stock solutions. To determine activity against human GPR120, compounds were added with human GPR120 stably expressing cells (described above), at eight desired concentrations ranging from 0.00001 to 20 μM, in 96 well plates and fluorescence intensities were measured for 90 seconds with 2-second intervals. An EC50 value (concentration of the GPR120 agonist where 50% of the agonist's maximal activity is observed) was calculated using the changes (Max−Min) of fluorescence intensity.
To determine percent activity for a tested compound, the fluorescence intensity value obtained at a particular concentration were compared to the maximal fluorescence intensity value obtained for reference compound GW9508 (4-[[(3-phenoxyphenyl)methyl]amino]benzene propanoic acid; British Journal of Pharmacology 2006 148, 619-628) or the compound of Example 25. When GW9508 was used as the reference compound, the maximal activity of GW9508 at 6.7 μM was designated as 100% activity. When the compound of Example 25 was used as the reference compound, the maximal activity of the compound of Example 25 at 2.5 μM was designated as 100% activity. Typically, the GW9508 activity reached a maximum at a concentration of approximately 6.7 μM and typically the compound of Example 25 reached a maximum activity at approximately 2.5 μM.

Bounds are passed on as bounds.

As to `CC1(C)Cc2cc(Cl)cc(COc3ccc(CCC(=O)O)c(F)c3)c2O1` [Example 53, 3-(4-((5-chloro-2,2-dimethyl-2,3-dihydrobenzofuran-7-yl)methoxy)-2-fluorophenyl)-propanoic acid], the “% Activity (GW9508 Reference Compound)” value was 143.19%.

As for `CC1(C)Cc2cc(Cl)cc(COc3cc(F)c(CCC(=O)O)c(F)c3)c2O1` [Example 54, 3-(4-((5-chloro-2,2-dimethyl-2,3-dihydrobenzofuran-7-yl)methoxy)-2,6-difluorophenyl)propanoic acid], the “% Activity (GW9508 Reference Compound)” value is given as 138.97%. Same read-out and setting: the figure for `COc1cc(CCC(=O)O)c(Br)cc1OCc1cc(F)cc2c1OC(C)(C)C2` [Example 56, 3-(2-bromo-4-((5-fluoro-2,2-dimethyl-2,3-dihydrobenzofuran-7-yl)methoxy)-5-methoxyphenyl)propanoic acid] is 108.51%.

Regarding `CC1(C)Cc2cc(Cl)cc(COc3ccc(SCC(=O)O)cc3)c2O1` [Example 59, 2-((4-((5-chloro-2,2-dimethyl-2,3-dihydrobenzofuran-7-yl)methoxy)phenyl)thio)-acetic acid], the “% Activity (GW9508 Reference Compound)” value is reported as 117.58%.

Take `CC1(C)Cc2cc(F)cc(COc3ccc(CCC(=O)O)c4c3CCC4)c2O1` [Example 63, 3-(7-((5-fluoro-2,2-dimethyl-2,3-dihydrobenzofuran-7-yl)methoxy)-2,3-dihydro-1H-inden-4-yl)propanoic acid]: the “% Activity (GW9508 Reference Compound)” value turned out to be 95.03%. Still for that read-out and setting: the figure for `C[C@H](Cc1ccc(OCc2cc(F)cc3c2OC(C)(C)C3)cc1)C(=O)O` [Example 65, (R)-3-(4-((5-fluoro-2,2-dimethyl-2,3-dihydrobenzofuran-7-yl)methoxy)phenyl)-2-methylpropanoic acid] is 141.04%. On the same count and under the same terms, the figure for `CC(Cc1ccc(NCc2cc(F)cc3c2OC(C)(C)C3)cc1)C(=O)O` (stereo not shown) [Example 67, 3-(4-(((5-fluoro-2,2-dimethyl-2,3-dihydrobenzofuran-7-yl)methyl)amino)phenyl)-2-methylpropanoic acid] is 141.82%. Turning to `CC(Cc1ccc(NC(=O)c2cc(F)cc3c2OC(C)(C)C3)cc1)C(=O)O` (stereo not shown) [Example 68, 3-(4-(5-fluoro-2,2-dimethyl-2,3-dihydrobenzofuran-7-carboxamido)phenyl)-2-methylpropanoic acid], the “% Activity (GW9508 Reference Compound)” value is 69.03% and the 50% effective concentration (EC50) (in general, the concentration needed to bring the measured effect to its halfway point) is over 10 µM. Taken in the same sequence, the figures for `CCOC(Cc1cc(F)c(OCc2cc(F)cc3c2OC(C)(C)C3)c(F)c1)C(=O)O` (stereo not shown) [Example 69, 3-(3,5-difluoro-4-((5-fluoro-2,2-dimethyl-2,3-dihydrobenzofuran-7-yl)methoxy)phenyl)-2-ethoxypropanoic acid] were 78.46% and over 10 µM. For `CC1(C)Cc2cc(F)cc(CCc3ccc(OCC(=O)O)cc3)c2O1` [Example 70, 2-(4-(2-(5-fluoro-2,2-dimethyl-2,3-dihydrobenzofuran-7-yl)ethyl)phenoxy)acetic acid], the “% Activity (GW9508 Reference Compound)” value is 117.72%. `CC1(C)Cc2cc(Cl)cc(COc3ccc(CCC(=O)O)c(-c4ccccc4)c3)c2O1` [Example 71, 3-(5-((5-chloro-2,2-dimethyl-2,3-dihydrobenzofuran-7-yl)methoxy)-[1,1′-biphenyl]-2-yl)propanoic acid]: the “% Activity (GW9508 Reference Compound)” value stood at 133.8%.

With `CCCc1cc(OCc2cc(Cl)cc3c2OC(C)(C)C3)c(F)cc1CCC(=O)O` [Example 73, 3-(4-((5-chloro-2,2-dimethyl-2,3-dihydrobenzofuran-7-yl)methoxy)-5-fluoro-2-propylphenyl)propanoic acid], the “% Activity (GW9508 Reference Compound)” value amounted to 114.85%. Take `CC(Cc1ccc(OCc2cc(Cl)cc3c2OC(C)(C)C3=O)c(F)c1)C(=O)O` (stereo not shown) [Example 77, 3-(4-((5-chloro-2,2-dimethyl-3-oxo-2,3-dihydrobenzofuran-7-yl)methoxy)-3-fluorophenyl)-2-methylpropanoic acid]: the “% Activity (GW9508 Reference Compound)” value came out at 109.62%. `CC(Cc1ccc(OCc2cc(Cl)cc3c2OC(C)(C)C3=O)c(C(F)(F)F)c1)C(=O)O` (stereo not shown) [Example 79, 3-(4-((5-chloro-2,2-dimethyl-3-oxo-2,3-dihydrobenzofuran-7-yl)methoxy)-3-(trifluoromethyl)phenyl)-2-methylpropanoic acid]: the “% Activity (GW9508 Reference Compound)” value came out at 3.85%. Same read-out and setting: next, `CC(Cc1ccc(OCc2cc(Cl)cc3c2OC(C)(C)C3O)c(F)c1)C(=O)O` (stereo not shown) [Example 80, 3-(4-((5-chloro-3-hydroxy-2,2-dimethyl-2,3-dihydrobenzofuran-7-yl)methoxy)-3-fluorophenyl)-2-methylpropanoic acid]: 86.25%; `CC(Cc1ccc(OCc2cc(-c3ccc(Cl)cc3)cc3c2OC(C)(C)C3)cc1)C(=O)O` (stereo not shown) [Example 82, 3-(4-((5-(4-chlorophenyl)-2,2-dimethyl-2,3-dihydrobenzofuran-7-yl)methoxy)phenyl)-2-methylpropanoic acid]: 24%; `COc1cccc(-c2cc(COc3ccc(CC(C)C(=O)O)cc3)c3c(c2)CC(C)(C)O3)c1` (stereo not shown) [Example 86, 3-(4-((5-(3-methoxyphenyl)-2,2-dimethyl-2,3-dihydrobenzofuran-7-yl)methoxy)phenyl)-2-methylpropanoic acid]: 5.23%.

For the compound `CC(Cc1ccc(OCc2cc(Cl)cc3c2OC(C)(C)C3)c(CN(C)C)c1)C(=O)O` (stereo not shown) [Example 88, 3-(4-((5-chloro-2,2-dimethyl-2,3-dihydrobenzofuran-7-yl)methoxy)-3-((dimethylamino)methyl)phenyl)-2-methylpropanoic acid], the “% Activity (GW9508 Reference Compound)” value is given as 118.92%. Still for that read-out and setting: next, `CCN(CC)c1cc(COc2ccc(CC(C)C(=O)O)cc2)c2c(c1)CC(C)(C)O2` (stereo not shown) [Example 89, 3-(4-((5-(diethylamino)-2,2-dimethyl-2,3-dihydrobenzofuran-7-yl)methoxy)phenyl)-2-methylpropanoic acid]: 82.28%; `CC(Cc1ccc(OCc2cc(-n3cnnn3)cc3c2OC(C)(C)C3)cc1)C(=O)O` (stereo not shown) [Example 90, 3-(4-((2,2-dimethyl-5-(1H-tetrazol-1-yl)-2,3-dihydrobenzofuran-7-yl)methoxy)phenyl)-2-methylpropanoic acid]: 75.86%. Same read-out and setting: next, `CC(Cc1ccc(OCc2ccc(F)c3c2CC(C)(C)O3)cc1)C(=O)O` (stereo not shown) [Example 91, 3-(4-((7-fluoro-2,2-dimethyl-2,3-dihydrobenzofuran-4-yl)methoxy)phenyl)-2-methylpropanoic acid]: 121.29%. On the same count and under the same terms, next, `CC1(C)Cc2c(COc3ccc4c(c3)CCC4CC(=O)O)ccc(F)c2O1` (stereo not shown) [Example 94, 2-(5-((7-fluoro-2,2-dimethyl-2,3-dihydrobenzofuran-4-yl)methoxy)-2,3-dihydro-1H-inden-1-yl)acetic acid]: 98.45%; `CC(Cc1ccc(OCc2c(F)ccc3c2CC(C)(C)O3)cc1)C(=O)O` (stereo not shown) [Example 96, 3-(4-((5-fluoro-2,2-dimethyl-2,3-dihydrobenzofuran-4-yl)methoxy)phenyl)-2-methylpropanoic acid]: 124.82%.
